# Reference: patent publication US12179400B2, “Multiple-matrix monolithic moulded part for the diffusion of active ingredients and method for obtaining same” (AB7 Innovation S.A.S.U., priority 2017, dated 2024)
# Columns and labels:
# Type in all cases: physicochemical
# [1] = GPC assay of active ingredients (repellent tracers) in EVA collars at T0 after injection and after 7 days of stability at 50° C.; settings: for Active ingredient loss (%): EVA; for cumulative loss: collar (C1), T0 loss plus loss after 7 days at 50° C.
# Protocol: In a 1 L beaker, 200 g of vitamin F, 160 g of Mentha pulegium essential oil, 31.2 g of eucalyptus essential oil, 8 g of lemongrass essential oil and 0.8 g of geraniol are mixed. The mixture is stirred lightly until a homogeneous liquid mixture is obtained.
# 3519.2 g of EVA are introduced into a cylindrical mixer preheated to 70° C. Then, the above homogeneous liquid mixture is slowly introduced. The mixture is left to be stirred gently until dry granules are obtained. 80 g of pistachio green dye are added and then mixed for 5 minutes. A compound is obtained consisting of EVA polymers loaded with 11.1% by weight of all the active ingredients combined, or 5.5% by weight of vitamin F and 5.6% by weight of repellents.
# The above compound is injected into a collar 60 cm long by 1 cm wide and weighing 25 g.
# The collars (C1) thus obtained were analyzed by GPC assay of the active ingredients contained in the matrix at time zero (T0) after injection, then after 7 days of stability at 50° C. in watertight-sealed packaging.
# In parallel, by proceeding according to the same protocol, vitamin F was replaced by coconut oil, in the same proportions, then the corresponding collar compound (C2) was injected. The analyses by GPC assay of the collars (C2) gave the results recorded in Table 2. […]
# [2] = In vitro release profile in plant oil from antiparasitic TPU (EPAMOULD) collar; settings: for release profile: bi-injected collar: one matrix 8% permethrin in 5% SANTICIZER 141, other matrix 4% deltamethrin in 22% SANTICIZER 141; for amount released after 15 days: single EPAMOULD matrix with 8% permethrin and 4% deltamethrin, both in 22% SANTICIZER 141
# Protocol: 8% permethrin is solubilized in 22% of SANTICIZER 141® Then, 4% deltamethrin is added, before adding the homogeneous mixture in a single EPAMOULD® matrix.
# FIG. 3: In vitro release profile in the plant oil from the pest control collar containing 8% permethrin and 4% deltamethrin, both solubilized in 22% SANTICIZER 141®
# Therefore, the same amount (8%) of permethrin was solubilized in 5% SANTICIZER® 141 prior to incorporation into a EPAMOULD® matrix as above, in order to obtain a permethrin compound. In parallel, the same quantity of deltamethrin (4%) solubilized in 22% of SANTICIZER® 141 was mixed, prior to incorporation into a EPAMOULD® matrix, in order to obtain a deltamethrin compound.
# The two compounds obtained are injected simultaneously in a collar using the bi-injection press as described in Example 1.
# FIG. 4: In vitro release profile in plant oil of the antiparasitic collar obtained by bi-injection including a matrix containing 8% of permethrin solubilized in 5% of SANTICIZER 141® and the other matrix containing 4% of deltamethrin dissolved in 22% of SANTICIZER 141®.
# [3] = Release profile at room temperature of active ingredient incorporated at 10% into polymer matrix bracelets; settings: for release profile: 10% loading
# Protocol: Studies carried out by the inventors have made it possible to prepare the release profiles of limonene as a function of the polymers used, namely PEBA, EVA and the bio-based polyethylene (PE) copolymer. Compounds loaded with 10% limonene were injected in a bracelet.
# FIG. 1: release profile at room temperature of limonene incorporated at 10% into different polymer matrices.
# 10% essential oil of Eucalyptus radiata has been incorporated into an EVA polymer matrix.
# FIG. 2: release profile at room temperature of Eucalyptus radiata essential oil incorporated at 10% into an EVA matrix
# [4] = collars (C1), 5.5% Vitamin F and 5.6% repellents, at T0 after injection
# [5] = collars (C1), 5.5% Vitamin F and 5.6% repellents, at T = 7 days at 50° C., watertight-sealed packaging
# [6] = collars (C2), 5.5% coconut and 5.6% repellents, at T0 after injection
# [7] = collars (C2), 5.5% coconut and 5.6% repellents, at T = 7 days at 50° C.
# [8] = PEBA bracelet loaded with 10% limonene
"Active ingredient loss (%) [1, 4]","Active ingredient loss (%) [1, 5]","Active ingredient loss (%) [1, 6]","Active ingredient loss (%) [1, 7]",cumulative loss [1],Structure (SMILES),further results
7%,20%,3%,0%,27%,CC(C)=CCCC(C)CCO (centres unmarked) [Citronellol],"Active ingredient loss (%) ([1]; collars (C1), 5.5% Vitamin F and 5.6% repellents, at T0 after injection, listed as citronellol): 7%; Active ingredient loss (%) ([1]; collars (C1), 5.5% Vitamin F and 5.6% repellents, at T = 7 days at 50° C., watertight-sealed packaging, listed as citronellol): 20%; Active ingredient loss (%) ([1]; collars (C2), 5.5% coconut and 5.6% repellents, at T0 after injection, listed as citronellol): 3%"
–,–,–,–,–,CC1(C)[C@H](C(=O)O[C@H](C#N)c2cccc(Oc3ccccc3)c2)[C@@H]1C=C(Br)Br [deltamethrin],release profile [2]: substantially similar release profile; amount released after 15 days [2]: 18%
–,–,–,–,–,"C=C(C)[C@H]1CC=C(C)CC1 [limonene, Limonene]","release profile ([3]; EVA matrix): releases gradually; amount released after 2 days [3, 8]: 70%; time until bracelet empty [3, 8]: 6 days; release profile ([3]; PEBA bracelet): very quickly and in a significant quantity; release profile ([3]; bio-based polyethylene (PE) copolymer bracelet): retains; remaining amount after 10 days ([3]; incorporated at 10% into EVA matrix): 42%"
–,–,–,–,–,CC1(C)C(C=C(Cl)Cl)C1C(=O)OCc1cccc(Oc2ccccc2)c1 (centres unmarked) [permethrin],release profile [2]: substantially similar release profile; amount released after 15 days [2]: 52%
12%,4%,0%,0%,16%,CC12CCC(CC1)C(C)(C)O2 [Cineole],"Active ingredient loss (%) ([1]; collars (C1), 5.5% Vitamin F and 5.6% repellents, at T0 after injection, listed as cineole): 12%; Active ingredient loss (%) ([1]; collars (C1), 5.5% Vitamin F and 5.6% repellents, at T = 7 days at 50° C., watertight-sealed packaging, listed as cineole): 4%"
6%,30%,0%,0%,36%,"CC(C)=CCC/C(C)=C/CO [Geraniol, geraniol]","Active ingredient loss (%) ([1]; collars (C1), 5.5% Vitamin F and 5.6% repellents, at T0 after injection, listed as geraniol): 6%; Active ingredient loss (%) ([1]; collars (C1), 5.5% Vitamin F and 5.6% repellents, at T = 7 days at 50° C., watertight-sealed packaging, listed as geraniol): 30%"
12%,38%,0%,3%,50%,CC(C)=CCCC(C)CC=O (centres unmarked) [Citronellal],"Active ingredient loss (%) ([1]; collars (C1), 5.5% Vitamin F and 5.6% repellents, at T0 after injection, listed as citronellal): 12%; Active ingredient loss (%) ([1]; collars (C1), 5.5% Vitamin F and 5.6% repellents, at T = 7 days at 50° C., watertight-sealed packaging, listed as citronellal): 38%; Active ingredient loss (%) ([1]; collars (C2), 5.5% coconut and 5.6% repellents, at T = 7 days at 50° C., listed as citronellal): 3%"

Structure (SMILES),"Active ingredient loss (%) [1, 4]","Active ingredient loss (%) [1, 5]","Active ingredient loss (%) [1, 6]","Active ingredient loss (%) [1, 7]",cumulative loss [1],further results
CC(C)=C1CC[C@@H](C)CC1=O [Pulegone],11%,10%,0%,0%,–,–
